Experimental findings from PubChem BioAssay AID179 (DTP/NCI, 2004) are described below.

Several values for one entry are separate records, joined by “and”; a condition that tells them apart may be missing. Identical values can stand only once. Activity calls are given as the source filed them.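 Rule for the calls: active = compounds giving half or more protection of infected cells from virus-caused growth loss, again on retest; inactive = the rest.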

This assay concerns CEM cells HIV-1 protection, formazan growth assay. Nature of the assay: NCI AIDS Antiviral Assay. The following applies: for IC50: measured here: growth of uninfected CEM cells. Put shortly:
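Steps: treat uninfected and HIV-1-infected human CEM cells at five drug levels; quantify growth by soluble formazan; retest any compound reaching 50% protection; classify actives from the retest.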

In general, EC50 refers to the concentration giving half of the maximal effect. In general, IC50 refers to the concentration needed to halve the response being measured. The low end stands for inhibition by little substance, the high end for a need for much substance. As to `CCCCC1SC2=NCCN2C1(O)c1ccc(Cl)cc1` (stereo not given), the EC50 was over 200 µM and the IC50 came out at 102 µM. On to `Cc1cc2nc3ccccc3n2c2nc(N)ccc12`, for which the EC50 was over 200 µM and the IC50 was 6.61 µM. As to `CN(CCO)CCC1COc2ccccc2O1` (stereo not given), the result was inactive. Take `CC12CCC(C(=O)n3c1nc1ccccc13)C(C)(C)O2` (stereo not given): the EC50 is over 200 µM and the IC50 was over 200 µM. For the compound `CCCCCCCCCCCCOC(=N)N1CCOCC1`, the EC50 was over 91.2 µM and the IC50 worked out at 4.47 µM.

`CCC1Sc2cc(OC)cc3c2N(CCN3)C1=O` (stereo not given): the EC50 is over 200 µM and the IC50 is 57.5 µM. Take `O=C(NC1C2CC3CC(C2)CC1C3)c1ccncn1` (stereo not given): the EC50 was over 513 µM and the IC50 was over 513 µM. On to `CC(=Nc1cccc(Cl)c1)c1ccncc1`, for which the result was inactive. Turning to `CCCNC(=O)Sc1ccccc1C(=O)NCCC(N)=O`, the EC50 is over 2.63 µM. With `CC(=O)OCC1OC(n2c(=S)n(-c3ccc(C)cc3)c(=O)c3ccccc32)C(OC(C)=O)C(OC(C)=O)C1OC(C)=O` (stereo not given), the EC50 was over 31.6 µM and the concentration for half-maximal inhibition (IC50) is over 31.6 µM. As for `CC1=CC[C@@]2(C)CC[C@](O)(C(C)C)C2C(OC(=O)c2ccccc2)C1` (stereo not given in full), the EC50 was over 200 µM and the IC50 amounted to 13.2 µM. As for `O=C(CC(NC(=O)C(F)(F)F)C(=O)O)OCc1ccccc1` (stereo not given), the EC50 is over 200 µM and the IC50 is over 200 µM. As for `CCOC(=O)c1ccc(-c2onc(C)c2Br)[nH]1`, the EC50 is over 200 µM and the IC50 is 39.8 µM. Regarding `Cc1cn([C@@H]2O[C@H](CO[Si](C)(C)C(C)(C)C)[C@]3(O[C@H]3C(=O)NO)[C@H]2O[Si](C)(C)C(C)(C)C)c(=O)[nH]c1=O`, the EC50 was over 200 µM and the IC50 turned out to be 1.17 µM. For `c1cc2c(cc1C1OCC3C(c4ccc5c(c4)OCO5)OCC13)OCO2` (stereo not given) the same measures were over 100 µM and 58.9 µM. Take `O=C(/C=C/c1ccc(O)c(O)c1)CC(=O)/C=C/c1ccc(O)c(O)c1`: the EC50 was over 200 µM and the IC50 is 10.2 µM. For `Cc1cn(CC2OCC(CO)O2)c(=O)[nH]c1=O` (stereo not given), in that order: over 1290 µM and 1100 µM. In the case of `CCC(C)N1CN(c2ccccc2)C2(CCN(CC3COc4ccccc4O3)CC2)C1=O` (stereo not given), the EC50 is over 200 µM and the IC50 was 29.5 µM. With `COc1ccccc1N=C(N)N/N=C/c1c[nH]c2ccccc12`, the result was inactive. `Cc1ccc(SC[C@@]2(C(F)F)NC(=O)NC2=O)cc1`: the EC50 was over 200 µM and the half-maximal inhibitory concentration (IC50) was over 200 µM.

As to `CC1=NNC(=O)C1C1(C(=O)O)CC(c2c[nH]c3ccccc23)=NC(=S)N1` (stereo not given), the EC50 was over 100 µM and the IC50 was 69.2 µM. For the compound `CCCCCCCCCCSS(=O)(=O)c1ccc(C)cc1`, the EC50 is over 21.9 µM and the 50% inhibitory concentration (IC50) was found to be 9.55 µM. In the case of `CC(=O)Nc1cc(Nc2cc(=O)[nH]c(=O)[nH]2)ccc1C`, the EC50 is over 200 µM and the IC50 was over 200 µM.

As to `COc1cc(Nc2cnc3cc(F)c(F)cc3n2)cc(OC)c1OC`, the EC50 was over 200 µM and the IC50 was over 200 µM. `O=C1c2cccc3cc([N+](=O)[O-])cc(c23)C(=O)N1O`: the EC50 is over 200 µM and the IC50 came out at 12 µM.

With `CCCNCCCC(NC(C)=O)C(=O)NCc1ccccc1` (stereo not given), the EC50 is over 813 µM and the concentration for half-maximal inhibition (IC50) is over 813 µM. With `CC1(C)COC2(C)N(c3ccccc3)C(=O)ON12` (stereo not given), the EC50 is over 200 µM and the IC50 is over 200 µM. As to `Nc1[nH]c(=S)c2c(N)n[nH]c2c1C(=O)Nc1ccccc1`, the EC50 is over 200 µM and the concentration for half-maximal inhibition (IC50) turned out to be 91.2 µM. For `CCCN(CCC)C(=S)N/N=C/c1ccccn1`, in that order: over 2 µM and 0.0126 µM. For `CO/C(=N\N=C\c1cccc(C(F)(F)F)c1)c1ccncc1` the same measures were over 117 µM and 12.6 µM. Turning to `NNC(=O)c1ccccc1SSc1ccccc1C(=O)NN`, the EC50 is 0.537 µM and the IC50 came to 3.55 µM. In the case of `COc1ccc(-n2c(C)nc3ccc(NC4OCC(O)C(O)C4O)cc3c2=O)cc1` (stereo not given), the EC50 was over 200 µM; the IC50 was 69.2 µM and 45.7 µM. With `CSc1nc(C(N)=O)c(NC(=O)c2ccccc2)s1`, the EC50 is over 200 µM and the IC50 was determined as 166 µM.

For the compound `CN(C)CCCCN1CCc2c(n(C)c3ccccc23)C1=O`, the EC50 was over 603 µM; the IC50 was 43.7 µM and 72.4 µM. Consider `O=C(NCCO)c1c(CN(CCO)CCO)n([O-])c2ccccc2[n+]1=O`, for which the EC50 is over 490 µM and the IC50 was 457 µM. As to `C/C(=N/OC(=O)N(C)C)c1cccs1`, the EC50 is over 200 µM and the 50% inhibitory concentration (IC50) is over 200 µM. For the compound `Cc1ccc(C2(C(=O)O)CCCN2)cc1` (stereo not given), the EC50 was over 200 µM and the IC50 is over 200 µM. With `N#CC(/C(=N/NC(=O)C(=O)NN)C(=O)NC12CC3CC(CC(C3)C1)C2)c1ccccc1` (stereo not given), the EC50 is over 155 µM and the IC50 is over 155 µM. With `Cc1ccc(N=N/C(=N/NC(=O)c2cc(Cl)ccc2C(=O)c2ccccc2)c2ccc(N(CCC#N)CCC#N)cc2C)cc1`, the EC50 is over 200 µM and the IC50 was found to be 11.7 µM.

Consider `Clc1ccc2c(NCCCCN=Cc3ccccc3)ccnc2c1`, for which the EC50 was over 200 µM and the IC50 turned out to be 26.9 µM. Take `CCC(=O)Oc1ccc2c(=O)c(-c3ccc(OC)cc3)c(CC)oc2c1`: the EC50 is over 200 µM and the IC50 turned out to be 25.1 µM.

Turning to `COC(=O)NC[C@@H]1OCc2cc3c(cc2[C@]12C=CCCC2)OCO3`, the EC50 is over 107 µM and the 50% inhibitory concentration (IC50) came to 2.63 µM. For the compound `CCCCCCCCOc1ccc(C(=O)c2ccccc2)c(O)c1`, the EC50 is over 200 µM and the IC50 came to 95.5 µM.

As to `COc1cc(C2OC(N)=C(C#N)C3=C2C(C)CCC3)cc(OC)c1OC` (stereo not given), the outcome was inactive.

For the compound `CC1=CN2C(c3ccccc3)=NON(c3ccc(C)cn3)C2C=C1` (stereo not given), the EC50 is over 21.4 µM and the IC50 was over 21.4 µM. With `CC(C)CC1NC(CC(C)C)N2C(CC(C)C)N12` (stereo not given), the EC50 was over 39.8 µM and the IC50 is over 39.8 µM. As to `O=C(O)CCCCSCCCCC(=O)O`, the EC50 was over 1070 µM and the IC50 is over 1070 µM.

For `Cn1c(=O)c(=O)n(C)c2nc3ccccc3nc21`, the EC50 is over 4.27 µM and the IC50 is over 4.27 µM. For `Cc1cccc(/C=C2\CCCCCC2=O)c1`, the EC50 is over 200 µM and the IC50 came to 53.7 µM.

With `COc1ccc(CCc2ncc[nH]2)cc1OC`, the EC50 is over 617 µM and the IC50 was over 617 µM. As to `COc1cc(OC)cc(Oc2nc3ccc(C(F)(F)F)cc3nc2-c2ccccc2)c1`, the EC50 was over 200 µM and the IC50 is over 200 µM. As to `O=C(OC(CC[P+](c1ccccc1)(c1ccccc1)c1ccccc1)(C(=O)c1ccccc1)c1ccccc1)c1ccccc1` (stereo not given), the EC50 was over 200 µM and the IC50 worked out at 1.07 µM. Turning to `CCCCC(C=O)(C=C=C(C)C)CC` (stereo not given), the EC50 is over 339 µM and the IC50 turned out to be 34.7 µM. For `O=C(Nc1ccc(C2=NCCN2)cc1)c1cccc(C(=O)Nc2ccc(C3=NCCN3)cc2)c1Cl` the same measures were 49 µM and 155 µM. For `COc1ccc(C2SCC(=O)N2NC(=O)c2ccc(NC(C)=O)cc2)cc1` (stereo not given), the EC50 was over 35.5 µM and the half-maximal inhibitory concentration (IC50) was over 35.5 µM.

Turning to `COc1ccc(/C=C2\S/C(=N/Nc3nc(-c4ccccc4)cs3)NC2=O)cc1OC`, the EC50 was over 200 µM and the IC50 is 31.6 µM. In the case of `Clc1cccc(Cl)c1C=NC12CC3CC(CC(C3)C1)C2`, the EC50 was over 200 µM and the IC50 is over 200 µM. Take `COC1/C=C/OC2(C)Oc3c(C)c(O)c4c(O)c(c(/C=N/N5C(C)CN(Cc6cccc(C#N)c6)CC5C)c(O)c4c3C2=O)NC(=O)/C(C)=C\C=C\C(C)C(O)C(C)C(O)C(C)C(OC(C)=O)C1C` (stereo not given): the EC50 was over 200 µM and the IC50 was 6.46 µM.

For the compound `OC(Cc1cccc2ccccc12)CN1CCC(c2ccccc2)CC1` (stereo not given), the EC50 was over 93.3 µM and the IC50 was 28.8 µM. For `NC(CSS(=O)(=O)O)=NCc1ccccc1`, the EC50 is over 200 µM and the IC50 is over 200 µM. With `O=C(c1ccc(Cl)cc1)N(C(=S)N1CCN(c2ccccn2)CC1)C1CCCCC1`, the EC50 is over 11.7 µM and the IC50 was determined as 8.51 µM. Regarding `O=C(c1ccccc1)n1c(Cc2ccccc2)nc2cc(C34CC5CC(CC(C5)C3)C4)ccc21`, the EC50 is over 100 µM and the IC50 is 16.6 µM.

Regarding `CC1(c2nc3cc(Cl)c(Cl)cc3[nH]2)CCC(CO)C(C)(C)O1` (stereo not given), the outcome was inactive. With `CN(C)N=Nc1cn[nH]c1C(N)=O`, the EC50 is over 138 µM and the IC50 was 6.76 µM.

Regarding `O=C(O)Cn1c[n+](NC(=O)Cc2ccccc2)cn1`, the EC50 is over 200 µM and the IC50 is over 200 µM.

Take `O=C(N/N=C\c1ccc([N+](=O)[O-])cc1)c1ccccc1Nc1ccccc1C(=O)N/N=C/c1ccc([N+](=O)[O-])cc1`: the EC50 was 91.2 µM and the IC50 was over 200 µM. For the compound `COc1cc2c(cc1OC)C(C#N)N(C(=O)c1ccccc1)C=C2OC(=O)c1ccccc1` (stereo not given), the result was inactive. In the case of `COC[C@@H](N=Cc1ccc([N+](=O)[O-])cc1)C(C)C`, the EC50 was over 200 µM and the IC50 was found to be 67.6 µM.

With `COC(=O)N1C2C(C[C@@]1(C)C(=O)OC)c1ccccc1N2S(=O)(=O)c1ccccc1` (stereo not given in full), the EC50 is over 200 µM and the IC50 is over 200 µM. On to `O=C(O)CCCCC[n+]1ccccc1`, for which the EC50 was over 200 µM and the IC50 was over 200 µM. With `Cc1nn(C(=O)c2ccncc2)c2c1C(c1ccccc1[N+](=O)[O-])SC(N)=N2` (stereo not given), the result was inactive. As for `CC(C)(C)N/N=C(/Cc1nc2c3c(ccc2[nH]c1=O)C(=O)c1ccccc1C3=O)C(=O)NC1=C(Cl)C(=O)c2ccccc2C1=O`, the EC50 is over 11.5 µM and the IC50 is over 11.5 µM. As to `O=C1CCCN(Cc2ccccc2)C(=O)N1`, the EC50 was over 1150 µM and the concentration for half-maximal inhibition (IC50) was over 1150 µM. `Oc1ccc(CCC2CCNc3ccccc32)cc1` (stereo not given): the EC50 is over 5.01 µM and the IC50 was over 5.01 µM.
